Values quoted from earlier work, collected in US7148350B2, “Compounds in the form of homodimeric or heterodimeric pro-drugs; process for obtaining these pro-drugs and their acceptable pharmaceutical salts and use of compounds in the treatment of phosphodiesterases-mediated diseases or dysfunction” (Cristalia Prod.Qui.Farm. LTDA, priority 2000, dated 2006).
Blank lines part the entries; values can stand above or below the compound they belong to.

Assays:
[1] = dimer versus isolated monomers
[2] = system: granulocyte progenitor cells and macrophages; details: dimer versus monomers
[3] = after administration; limited by pre-systemic metabolism
erectile dysfunction = details: oral administration; patients with organic erectile dysfunction

oral bioavailability (after oral administration of AZT-P-DDI): 64.7–67.3% | EC50 [1]: 3.9 nM
Compound: Cc1cn([C@H]2C[C@H](N=[N+]=[N-])[C@@H](CO)O2)c(=O)[nH]c1=O [AZT, zidovudine]

EC50 [1]: 460 nM
Compound: O=c1[nH]cnc2c1ncn2[C@H]1CC[C@@H](CO)O1 [DDI, didanosine]

time after which plasmatic concentration is no longer detected (intravenous administration, 50 or 100 mg): 30 min | detection of the dimer after oral administration (oral administration): not detected | EC50 [1]: 0.14 nM
Compound: Cc1cn([C@H]2C[C@H](N=[N+]=[N-])[C@@H](COP(=O)(O)OC[C@@H]3CC[C@H](n4cnc5c(=O)[nH]cnc54)O3)O2)c(=O)[nH]c1=O [AZT-P-DDI]
less toxicity (fold) [2]: 10 times

absolute bioavailability [3]: 40%
Compound: CCCc1nn(C)c2c(=O)[nH]c(-c3cc(S(=O)(=O)N4CCN(C)CC4)ccc3OCC)nc12 [sildenafil]

Compound: COC(=O)[C@@H]1[C@H]2C[C@H]3c4[nH]c5ccccc5c4CCN3C[C@@H]2CC[C@@H]1O [Yohimbine]
effectiveness (erectile dysfunction): low
